Measured values: patent US9169315B2, “Heparin cofactor II fragments with anti-inflammatory and anti-coagulant activity” (XIMMUNE AB, priority 2009, dated 2015)
No end group written: not given here.

What was measured:
[1] = test system: Escherichia coli, Pseudomonas aeruginosa, Bacillus subtilis, Staphylococcus aureus, Candida albicans, Candida parapsilosis; test: Radial diffusion assay (RDA); assay type: cell-based; conditions: peptide at 100 μM; compared with LL-37
Protocol: Essentially as described earlier, bacteria were grown to mid-logarithmic phase in 10 ml of full-strength (3% w/v) trypticase soy broth (TSB) (Becton-Dickinson). The microorganisms were then washed once with 10 mM Tris, pH 7.4. Subsequently, 4×10^6 cfu were added to 15 ml of the underlay agarose gel, consisting of 0.03% (w/v) TSB, 1% (w/v) low electroendosmosis type (EEO) agarose (Sigma-Aldrich) and 0.02% (v/v) Tween 20 (Sigma-Aldrich). The underlay was poured into a Ø 144 mm petri dish. After agarose solidification, 4 mm-diameter wells were punched and 6 μl peptide solution of required concentration added to each well. Plates were incubated at 37° C. for 3 h to allow peptide diffusion. The underlay gel was then covered with 15 ml of molten overlay (6% TSB and 1% Low-EEO agarose in distilled H2O). Antimicrobial activity of a peptide was visualized as a zone of clearing around each well after 18-24 h of incubation at 37° C.
Essentially as described earlier (Lehrer, Rosenman et al. 1991; Andersson, Rydengård et al. 2004), bacteria were grown to mid-logarithmic phase in 10 ml of full-strength (3% w/v) trypticase soy broth. (TSB) (Becton-Dickinson). The microorganisms were then washed once with 10 mM Tris, pH 7.4. Subsequently, 4×10^6 cfu were added to 15 ml of the underlay agarose gel, consisting of 0.03% (w/v) TSB, 1% (w/v) low electroendosmosis type (EEO) agarose (Sigma-Aldrich) and 0.02% (v/v) Tween 20 (Sigma-Aldrich). The underlay was poured into a Ø 144 mm petri dish. After agarose solidification, 4 mm-diameter wells were punched and 6 μl peptide solution of required concentration added to each well. Plates were incubated at 37° C. for 3 h to allow peptide diffusion. The underlay gel was then covered with 15 ml of molten overlay (6% TSB and 1% Low-EEO agarose in distilled H2O). Antimicrobial activity of a peptide was visualized as a zone of clearing around each well after 18-24 h of incubation at 37° C. […]

E. coli 0111:B4 LPS = test: LPS model in vivo (E. coli LPS-induced shock); design: species or system C57BL/6 mice; conditions: for IFN-γ in blood / IL-6 in blood / MCP-1 in blood / TNF-α in blood / IL-10 in blood / Platelet counts: 0.5 mg peptide; for IFN-γ in blood / IL-6 in blood / MCP-1 in blood / TNF-α in blood: 8 and 20 h after LPS injection; for IL-10 in blood: 8 or 20 h after LPS injection; for Survival: 18 mg/kg E. coli LPS i.p., peptide i.p., followed 7 days; for Weight: followed for 7 days; for Platelet counts: 8 and 20 h after LPS
Protocol: Septic shock in C57BL6 mice was induced by intraperitoneal injection of 18 mg/kg E. coli LPS. Sixty minutes later KYE28 and KYE21 (0.2 and 0.5 mg; in PBS) or buffer only was administered. […] (C) Peptide treatment affects the number of platelets in the LPS-induced shock model. (D) In separate experiments mice were injected with LPS followed by administration of 0.5 mg of KYE28 or KYE21, or buffer. Animals were sacrificed at 8 h, 20 h, or after 7 days and the number of platelets in blood counted using the VetScanSystem. […] Cytokines were measured in blood from animals sacrificed at 8 or 20 h after LPS injection. […] C57BL6 were i.p. injected with […] LPS followed by 0.5 mg of KYE28 After 20 h mice were sacrificed and cytokine levels in blood were determined. (KYE28; n=10). All data are representative of two independent experiment.
RAW 264.7 macrophages were stimulated with 10 ng/ml E. coli or P. aeruginosa LPS in combination with indicated concentrations NLF20. […] Clotting times were determined without (control) or with 20 μM of the peptide. Activated partial thromboplastin time (aPTT) was measured by incubating the peptides at the indicated concentrations in citrated human plasma for 1 minute followed by the addition of 100 μl aPTT reagent (aPTT Automate, Diagnostica Stago) for 60 seconds at 37° C. Clotting was initiated by the addition of CaCl2 solution. Results illustrating the prothombin time assay (PT) and thrombin clotting time (TCT) are also presented. (C) Septic shock in C57BL6 mice was induced by intraperitoneal injection of 18 mg/kg E. coli LPS. NLF20 (0.2 or 0.5 mg in 10 mM Tris, pH 7.4) or buffer only was administered. […] (E) Weight was followed for 7 days. […] In separate experiments mice were injected with LPS followed by administration of 0.5 mg of NLF20, or buffer. Animals were sacrificed at 8 h, 20 h, and survivors after 7 days and the number of platelets in blood counted using the VetScanSystem. (F) Administration of NLF20 (0.5 mg) selectively modulates the cytokine response compared to control mice. Cytokines were measured in blood from animals sacrificed at 8 or 20 h after LPS injection. (G) NLF abrogates inflammation in lungs. Lungs were analyzed by light microscopy after staining with hematoxylin-eosin, or analyzed by scanning electron microscopy 20 h after LPS injection i.p., followed by treatment with NLF20 (0.5 mg) or buffer.
(§1) Male C57BL/6 mice (8-10 weeks, 22+/−5 g), were injected intraperitoneally with 18 mg E. coli 0111:B4 LPS (Sigma) per kg of body weight. Thirty minutes after LPS injection, 0.5 mg KYE28, KYE21 or buffer alone was injected intraperitoneally into the mice. Survival and status was followed during seven days. For blood collection and histochemistry, mice were sacrificed 20 h after LPS challenge, and lungs were removed and fixed. These experiments were approved by the Laboratory Animal Ethics Committee of Malmö/Lund.
as §1, with “NLF20” for “KYE28, KYE21”

Sequence	Antimicrobial activity in RDA (zones of clearance) [1]	IFN-γ in blood (E. coli 0111:B4 LPS)	IL-6 in blood (E. coli 0111:B4 LPS)	MCP-1 in blood (E. coli 0111:B4 LPS)	TNF-α in blood (E. coli 0111:B4 LPS)	IL-10 in blood (E. coli 0111:B4 LPS)	Survival (E. coli 0111:B4 LPS)	Weight (E. coli 0111:B4 LPS)	Platelet counts (E. coli 0111:B4 LPS)
KYEITTIHNLFRKLTHRLFRR [KYE21]	activities were similar to those observed for	significant reductions	significant reductions	significant reductions	significant reductions	an increase in IL-10 was observed after 8 h	dramatic improvement on survival	full recovery of weight	
KYEITTIHNLFRKLTHRLFRRNFGYTLR [KYE28]	activities were similar to those observed for	significant reductions	significant reductions	significant reductions	significant reductions	an increase in IL-10 was observed after 8 h	dramatic improvement on survival	full recovery of weight	increased platelet levels after 20 h
NLFRKLTHRLFRRNFGYTLR [NLF20]	well exceeded those observed for	significant reductions				an increase in IL-10 was observed after 8 h and 20 h	dramatic improvement on survival	full recovery of weight	significantly increased platelets
